Laboratory results as given in patent US20230302021A1, “COMPOSITIONS AND METHODS FOR TREATING CASTRATION-RESISTANT PROSTATE CANCER” (Purdue Research Foundation, priority 2022, published 2023).

What was measured:
[1] = test system: 22RV1 cells; assay: Cell proliferation / viability (MTT) assay; format: cell-based; details: for proliferation of 22RV1 cells: ENZ-resistant 22RV1 cells, FIG. 1
Experimental: Cell viability assay: An MTT assay was performed to evaluate the effect of drugs on cell viability. Ten thousand cells per well were plated in a 96-well plate and treated with drugs the following day. The MTT solution (0.5 mg/ml) was then applied to the cells for 1 h at 37° C. with 5% CO2. Precipitated formazan was dissolved in DMSO and quantified at 570 nm using a microplate reader (Beckman-Coulter). Combination index: The data obtained from the MTT assay were used to calculate cell viability and also used to calculate combination index (CI). The Chou-Talalay method was applied to determine the CI using CompuSyn software (Biosoft).

[2] = biological target: T1, SOAT1 (Homo sapiens, UniProt P35610); details: cited from earlier work
T1 sequence (P35610 1-550): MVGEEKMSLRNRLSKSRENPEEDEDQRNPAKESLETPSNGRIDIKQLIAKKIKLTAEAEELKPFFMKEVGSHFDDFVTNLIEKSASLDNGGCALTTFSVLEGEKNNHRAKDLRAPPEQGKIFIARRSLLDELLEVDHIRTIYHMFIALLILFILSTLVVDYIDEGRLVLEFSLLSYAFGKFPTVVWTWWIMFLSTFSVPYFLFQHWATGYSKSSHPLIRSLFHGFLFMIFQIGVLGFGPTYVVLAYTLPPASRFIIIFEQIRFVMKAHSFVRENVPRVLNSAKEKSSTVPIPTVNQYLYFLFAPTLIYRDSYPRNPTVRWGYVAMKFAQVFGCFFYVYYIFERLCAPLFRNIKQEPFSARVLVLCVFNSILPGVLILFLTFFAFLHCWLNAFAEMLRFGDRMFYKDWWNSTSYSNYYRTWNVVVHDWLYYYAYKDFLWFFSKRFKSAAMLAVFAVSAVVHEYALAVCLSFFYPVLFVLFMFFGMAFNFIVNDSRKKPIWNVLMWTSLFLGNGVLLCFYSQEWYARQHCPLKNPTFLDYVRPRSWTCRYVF

[3] = test system: AR signaling; assay: qPCR of genes related to AR signaling in 22RV1 cells; format: cell-based; details: 20 μM ENZ in presence or absence of 4 μM avasimibe, 24 h
[4] = test system: 22RV1-derived xenograft; assay: 22RV1-derived mouse xenograft model; format: in vivo; details: castrated nude mice, daily for 3 weeks; ENZ 25 mg/kg/day oral gavage, AVA 20 mg/kg/day intraperitoneal
Experimental: All procedures were approved by the Purdue Animal Care and Use Committee. Five-week-old male nude mice (Jackson Laboratory) were purchased for the experiment. […] ENZ stock prepared in DMSO was diluted in corn oil for oral gavage and AVA solution was prepared. Once the tumors reached approximately 50-100 mm^3, the mice were randomly divided into four groups for daily drug administration for 3 weeks: (i) vehicle oral gavage (corn oil)+vehicle intraperitoneal injection (2% tween-80 (v/v) and 3.2 mg/mL 2-hydroxypropyl-β-cyclodextrin in PBS); (ii) ENZ alone (25 mg/kg body weight/day) by oral gavage; (iii) AVA alone (20 mg/kg body weight/day) by intraperitoneal injection; (iv) ENZ (25 mg/kg/day)+AVA (20 mg/kg/day). Tumors were monitored every two days with a caliper and tumor volumes were calculated with the formula V=0.5×L×W^2 (where V is volume, L is length, W is the width). At the end of the study, mice were euthanized and tumor tissues were excised and weighted.

[5] = rats, dogs, and humans; cited from earlier work

SMILES	proliferation of 22RV1 cells [1]	IC50 [2]	AR expression (mRNA) [3]	AR-V7 expression (mRNA) [3]	Nkx3.1 expression (mRNA) [3]	Psa expression (mRNA) [3]	tumor growth (appearance, average tumor volume, tumor weight) [4]	safety when administered [5]	proliferation of shRNA-transfected 22RV1 cells ([1]; shCTRL or shSOAT1 with DMSO or ENZ, FIG. 5B)	IC50 value for SOAT1 relative to the corresponding IC50 value for SOAT2 ([2]; SOAT1 vs SOAT2 selectivity)
CC(C)c1cc(C(C)C)c(CC(=O)NS(=O)(=O)Oc2c(C(C)C)cccc2C(C)C)c(C(C)C)c1 [AVA, avasimibe]	slightly suppressed cell proliferation	24 µM	did not change	did not change	downregulated	downregulated	did not sufficiently delay the tumor growth	considered safe	–	–
CNC(=O)c1ccc(N2C(=S)N(c3ccc(C#N)c(C(F)(F)F)c3)C(=O)C2(C)C)cc1F [ENZ, enzalutamide]	resistant	–	–	–	–	–	did not sufficiently delay the tumor growth	–	little effect on the proliferation	–
CCOC(=O)OC(=O)OCC [pyrocarbonate, diethyl pyrocarbonate]	–	–	–	–	–	–	–	–	–	at least twice or higher
